Patent publication US20160280651A1, “COMPOUNDS THAT INDUCE ABA RESPONSES” (THE REGENTS OF THE UNIVERSITY OF CALIFORNIA, priority 2013, published 2016)

How the values were obtained:
[1] = test system: PYR/PYL receptors and the PP2C HAB1; experiment: Yeast two-hybrid agonist assay (screens and receptor sensitivity); type: cell-based, Arabidopsis; conditions: 5 μM of test chemicals
Description: FIG. 1A-FIG. 1B. Novel ABA agonists bind to multiple PYR/PYL. (A) Chemical structure of naturally occurring (+)-ABA, its (−)analog and selected ABA agonists. (B) Yeast two-hybrid agonist assays of PYR/PYL receptor sensitivity to 5 μM of test chemicals. Specific PYR/PYL Receptors and the PP2C HAB1 are expressed as Ga14 BD or AD fusion proteins respectively, as described in the text.
A previously described yeast two-hybrid system was used in high throughput screens (HTS) to identify ABA agonists (see, Peterson F C, et al. (2010) Structural basis for selective activation of ABA receptors. Nature Structural & Molecular Biology 17(9):1109-1111). In this system the agonist promoted receptor-PP2C interaction drives expression of a URA3 or HIS3 reporter gene and rescues uracil or histidine auxotrophy of parental strains (Peterson F C, et al. (2010); Vidal M, Brachmann R K, Fattaey A, Harlow E, & Boeke J D (1996) Reverse two-hybrid and one-hybrid systems to detect dissociation of protein-protein and DNA-protein interactions. Proceedings of the National Academy of Sciences of the United States of America 93(19):10315-10320). […]

ABA-responsive genes [2] = experiment: Quantitative RT-PCR of ABA-responsive genes in Arabidopsis; type: in vivo; conditions: for Induction of MAPKKK18, RD29A and RD29B mRNAs: Col and Ler ecotypes and pyr1, pyl1, pyl2, pyl3, pyl4 single mutants; for Expression of ABF3, GBF3, NCED3 and RD29A: Col wild-type plants; for Expression of RD29B and MAPKKK18 mRNA: wild-type plants
Description: (§1) FIG. 9A-FIG. 9D. LC66C6 induces numerous ABA-responsive genes. […] Ten-day old seedlings were treated with carrier solvent (DMSO) or either 25 μM ABA, pyrabactin or LC66C6 for 8 hours. Total RNA was then prepared labeled and hybridized to ATH1 microarrays. Data plotted are log 2 transformed average expression values for ˜13K probes that were detectable across all experiments. Data shown are averages determined from triplicate biological replicates. (C) and (D) show the expression of a reporter gene in different plant tissues after treatment with vehicle (DMSO), pyrabactin, LC66C6, or (+)-ABA.
FIG. 10. ABA-responsive gene expression in PYR/PYL single mutants. The response of the ABA-responsive MAPKKK18, RD29A, and RD29B mRNAs to LC66C6, ABA and pyrabactin were characterized in the Col and Ler ecotypes and the pyr1, pyl1, ply2, pyl3 and pyl4 single mutant genotypes.
FIG. 11. LC66C6 induces ABA-responsive gene expression in wild-type plants, abi1-1 and PYR/PYL quadruple mutants.
Total RNA was isolated using Plant RNA purification reagent (Invitrogen, USA) according to the manufacturer's instructions. cDNA was synthesized from 1 μg of total RNA using the QantiTec reverse transcription kit (Qiagen, USA). Real-time PCR using Maxima® SYBR Green/Fluorescein qPCR Master Mix (Fermentas) was performed with the iQ5 real-time PCR detection system (Bio-Rad, Hercules, Calif.). The relative amounts of target mRNAs were determined using the relative standard curve method and were normalized by relative amount of internal control mRNA. Biological triplicate experiments were performed.

ABA-responsive genes [3] = experiment: ATH1 microarray analysis; type: in vivo, Arabidopsis; conditions: wild-type seedlings; 25 μM
Description: as §1
Total RNA was isolated using RNAeasy Plant Mini Kit (Qiagen, USA) according to the manufacturer's instructions. cDNA synthesis, labeling and hybridization to the Arabidopsis ATH1 chips (Affymetrix, USA) were performed by the IIGB Core Instrumentation Facility of University of California at Riverside using Affymetrix protocols. Biological triplicate samples were hybridized for DMSO controls, ABA, pyrabactin and quinabactin treatments; compound were applied at 25 μM final concentration and RNA prepared from frozen tissue after 6 hours exposure to compounds or controls. Expression signals for probe sets were calculated and normalized by MASS Statistical Algorithm (Affymetrix, USA). Experimental filtering of array data was performed for the presence of signal in all experiments. […]

CCCN1C(=O)CCc2cc(NS(=O)(=O)Cc3ccc(C)cc3)ccc21 [LC66C6]
Agonist activity and receptor selectivity in yeast two-hybrid assay [1]: agonist of multiple PYR/PYL receptors | Induction of MAPKKK18, RD29A and RD29B mRNAs (ABA-responsive genes [2]): induced | Expression of ABF3, GBF3, NCED3 and RD29A (ABA-responsive genes [2]): induced expression of ABF3, GBF3, NCED3, and RD29A in a dose dependent manner | Expression of RD29B and MAPKKK18 mRNA (ABA-responsive genes [2]): induced the expression of RD29B and MAPKKK18 mRNA in a dose dependent manner in wild-type plants | Genome-wide expression pattern compared with ABA (ABA-responsive genes [3]): induces a similar set of genes to those induced by ABA

O=S(=O)(NCc1ccccn1)c1ccc(Br)c2ccccc12 [pyrabactin, reference compound]
Agonist activity and receptor selectivity in yeast two-hybrid assay [1]: much greater receptor selectivity than ABA or the new agonist LC66C6 | Induction of MAPKKK18, RD29A and RD29B mRNAs (ABA-responsive genes [2]): did not significantly induce expression | Expression of ABF3, GBF3, NCED3 and RD29A (ABA-responsive genes [2]): did not induce significant expression | Expression of RD29B and MAPKKK18 mRNA (ABA-responsive genes [2]): did not induce gene expression in wild-type plants | Genome-wide expression pattern compared with ABA (ABA-responsive genes [3]): did not induce an expression pattern similar to that of ABA
